Results from ChEMBL document CHEMBL2074325, “The multidrug resistance protein 5 functions as an ATP-dependent export pump for cyclic nucleotides” (J Biol Chem, 2000).
One block for each molecule: values may come before it.

Columns and labels:
Type in all cases: functional, cell membranes, Membrane vesicle
Parameters in all cases: scale not given: the % may be the effect or the level left
MRP5 (ABCC5) [1] = molecular target: T1, MRP5 (ABCC5) (Homo sapiens, UniProt O15440); assay: TP_TRANSPORTER: inhibition of cGMP uptake (cGMP: 5 uM, Sildenafil: 1 uM) in membrane vesicles from MRP5-expressing V79 cells; settings: hamster, probe cGMP (5 uM), read-out: Activity
MRP5 (ABCC5) [2] = molecular target: T1, MRP5 (ABCC5); assay: TP_TRANSPORTER: inhibition of cGMP uptake (cGMP: 5 uM, Fluorescein diacetate: 50 uM) in membrane vesicles from MRP5-expressing V79 cells; settings: hamster, probe cGMP (5 uM), read-out: Activity
[3] = molecular target: ATP-binding cassette sub-family C member 5 (Homo sapiens, UniProt O15440); assay: TP_TRANSPORTER: inhibition of cGMP uptake (cGMP: 5 uM, Probenecid: 50 uM) in membrane vesicles from MRP5-expressing V79 cells; settings: hamster, v79, 50 µM
MRP5 (ABCC5) [4] = molecular target: T1, MRP5 (ABCC5); assay: TP_TRANSPORTER: inhibition of cGMP uptake (cGMP: 5 uM, Trequinsin: 1 uM) in membrane vesicles from MRP5-expressing V79 cells; settings: hamster, probe cGMP (5 uM), read-out: Activity
MRP5 (ABCC5) [5] = molecular target: T1, MRP5 (ABCC5); assay: TP_TRANSPORTER: inhibition of cGMP uptake (cGMP: 5 uM, Zaprinast: 10 uM) in membrane vesicles from MRP5-expressing V79 cells; settings: hamster, probe cGMP (5 uM), read-out: Activity

T1 sequence (O15440 whole entry): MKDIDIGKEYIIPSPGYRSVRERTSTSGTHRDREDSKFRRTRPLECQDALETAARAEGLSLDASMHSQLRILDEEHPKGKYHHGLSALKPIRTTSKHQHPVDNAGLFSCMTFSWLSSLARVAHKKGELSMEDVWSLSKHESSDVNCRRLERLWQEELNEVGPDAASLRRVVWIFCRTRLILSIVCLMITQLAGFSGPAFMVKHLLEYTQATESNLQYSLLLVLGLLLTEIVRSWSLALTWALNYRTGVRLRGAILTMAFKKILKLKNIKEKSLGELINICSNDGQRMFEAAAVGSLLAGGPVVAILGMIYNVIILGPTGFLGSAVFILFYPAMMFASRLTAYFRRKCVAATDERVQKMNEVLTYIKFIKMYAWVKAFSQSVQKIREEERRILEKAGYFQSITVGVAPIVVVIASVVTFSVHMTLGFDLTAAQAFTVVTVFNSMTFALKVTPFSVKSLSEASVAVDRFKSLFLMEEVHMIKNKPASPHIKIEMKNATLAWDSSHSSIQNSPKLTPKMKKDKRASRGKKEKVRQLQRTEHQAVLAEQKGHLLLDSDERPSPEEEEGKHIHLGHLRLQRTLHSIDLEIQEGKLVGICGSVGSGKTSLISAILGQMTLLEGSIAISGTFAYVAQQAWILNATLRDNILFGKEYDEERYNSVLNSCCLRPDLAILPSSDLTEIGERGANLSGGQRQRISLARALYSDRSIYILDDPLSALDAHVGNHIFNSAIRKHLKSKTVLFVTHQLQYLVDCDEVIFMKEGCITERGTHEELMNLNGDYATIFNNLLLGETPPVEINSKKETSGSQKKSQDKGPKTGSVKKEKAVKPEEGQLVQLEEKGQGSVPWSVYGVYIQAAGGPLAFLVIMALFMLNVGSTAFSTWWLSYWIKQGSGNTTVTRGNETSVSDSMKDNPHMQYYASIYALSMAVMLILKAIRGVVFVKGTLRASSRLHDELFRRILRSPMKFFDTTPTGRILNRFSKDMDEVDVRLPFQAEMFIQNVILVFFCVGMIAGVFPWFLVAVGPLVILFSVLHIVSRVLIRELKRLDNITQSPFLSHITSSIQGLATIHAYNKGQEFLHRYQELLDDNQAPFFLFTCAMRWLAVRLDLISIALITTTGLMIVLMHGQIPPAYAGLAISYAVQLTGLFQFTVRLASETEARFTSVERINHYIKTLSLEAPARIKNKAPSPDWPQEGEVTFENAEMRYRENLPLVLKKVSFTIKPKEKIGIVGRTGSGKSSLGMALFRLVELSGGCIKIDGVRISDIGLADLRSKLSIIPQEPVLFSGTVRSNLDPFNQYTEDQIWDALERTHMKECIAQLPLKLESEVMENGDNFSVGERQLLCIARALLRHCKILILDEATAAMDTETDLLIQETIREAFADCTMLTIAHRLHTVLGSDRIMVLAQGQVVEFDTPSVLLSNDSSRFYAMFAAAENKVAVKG
ATP-binding cassette sub-family C member 5, sequence (O15440 whole entry): as above

SMILES: CCCc1nn(C)c2c(=O)[nH]c(-c3cc(S(=O)(=O)N4CCN(C)CC4)ccc3OCC)nc12
activity at 1 µM (MRP5 (ABCC5) [1]): 22%

SMILES: CC(=O)Oc1ccc2c(c1)Oc1cc(OC(C)=O)ccc1C21OC(=O)c2ccccc21 [FLUORESCEIN DIACETATE]
activity at 50 µM (MRP5 (ABCC5) [2]): 49.2%

SMILES: CCCN(CCC)S(=O)(=O)c1ccc(C(=O)O)cc1 [PROBENECID]
Activity [3]: 31.7%

Other lines, results leading:

activity at 1 µM (MRP5 (ABCC5) [4]): 26.2%
SMILES: COc1cc2c(cc1OC)-c1c/c(=N\c3c(C)cc(C)cc3C)n(C)c(=O)n1CC2 [TREQUINSIN]

activity at 10 µM (MRP5 (ABCC5) [5]): 41%
SMILES: CCCOc1ccccc1-c1nc2nn[nH]c2c(=O)[nH]1 [ZAPRINAST]
